From PMC9321647, “Curcumin-Based β-Diketo Ligands for Ga^3+: Thermodynamic Investigation of Potential Metal-Based Drugs” (Pharmaceuticals, 2022)
Where two headings read alike, the source gives them in different places. Blank lines part the entries; values can stand above or below the compound they belong to.

Assays:
[1] = Spectrophotometric pH titrations of ligands (protonation constants, pKa); format: physicochemical; conditions: 298 K; for pKa: aqueous solution (methanol stock diluted in water), calculated from logβ values, * = keto–enol moiety dissociation
Experimental: (§1) UV–visible spectra were recorded with a JASCO V-570 UV/Vis/NIR spectrophotometer at 298 K in the 250–600 nm spectral range employing quartz cells (1 cm optical path). To perform spectrophotometric titrations, ligands (denoted generally as L in the following) were dissolved in methanol to give a mother solution (2.50 mM), that was then diluted in water in order to obtain a final concentration of 50 μM. The metal/ligand (M:L) solutions were obtained by adding appropriate quantities of Ga(NO3)3 as methanol solutions (5–10 mM) in order to obtain the metal-to-ligand 1:1 molar ratio (L = 50 μM and V = 25 mL). For both L and M:L systems, pH (initial value of about 5) was varied by adding small amounts (<1 μL) of concentrated NaOH (4 M) up to ca. pH 11, thus to consider volume variations negligible. To evaluate the complexation ratio, constant additions of the M solution (10 µL each time, M = 10^–2 M) were dropped into the ligand solution (V = 25 mL, L = 50 μM) using a micropipette in order to reach different M:L molar ratios. A constant ionic strength (NaNO3, 0.1 M) was maintained in all experiments. Spectrophotometric investigations of iron(III) systems were performed in the same conditions; the Fe^3+ solution was freshly prepared in methanol starting from Fe(NO3)3·9H2O. The overall protonation constants (logβqr) and the overall stability constants of metal complexes (logβpqr) were evaluated from spectrophotometric data. The stability constants (βpqr), defined by the following equations:(3) pM^m++qL^l^−+rH^+⇌MpLqHr(mp−lq+r) (4) βpqr=[MpLqHr(mp−lq+r)]/[M^m+]^p·[L^l−]^q·[H^+]^r where L is the ligand in the completely dissociated form and H is proton, were refined using least-squares calculation in HypSpec. The results of least-squares calculation include the standard deviations and correlation coefficients of the refined parameters. The quantities are obtained by performing error propagation calculation from the experimental errors onto the parameters. The stability constant refinement furnishes least-squares estimates of the standard deviation, σ, of the stability constant β. The error on logβ is calculated as follows: σ(logβ) = [log(β + σ) − log(β − σ)]/2.

[2] = Spectrophotometric pH-metric titrations of Ga^3+:ligand systems (stability constants, pGa, speciation); format: physicochemical
Experimental: as §1
Hydroxide species, such as [Ga(OH)2]^+, were taken into account for calculations. The hydrolysis constants for Ga^3+ are as follows: logβ1,1,0 = −3.93; logβ2,1,0 = −7.73; logβ3,1,0 = −12.38; logβ4,1,0 = −15.96; logβ32,13,0 = −66.3; logβ3,1,0(s) = −3.54 [43]; pGa is defined as (−log[Ga^3+]free) and is calculated at specific conditions (Ga^3+total = 1 μM, Ltotal = 10 μM, pH 7.4, 25 °C). For the calculation of the iron(III) overall stability constants, the presence of [Fe(OH)]^2+, [Fe(OH)2]^+ and [Fe(OH)3] species was taken into account.

[3] = Kinetic stability of ligands in simulated physiological conditions (UV-Vis); format: physicochemical
Experimental: The chemical stability of ligands and metal complexes at the M:L 1:L molar ratio at 37 °C in darkness was evaluated by UV−Vis spectroscopy as a change in absorbance in the 250−600 nm range over an overall period of 8 h. Solutions (5.0 × 10^–5 mol L^–1) of the ligands were prepared in 0.1 mol L^–1 phosphate-buffered solution (PBS) at pH 7.4. Spectra were recorded every 30 min. All profiles were linearized as the hyperbolic function defined by Equation (2), which represents an empirical model that describes drug decomposition or release well [42]:(2) t/f%=at+b where f% is the percentage of the residual compound at time t (min) referred to the starting concentration at time zero determined by reading the absorbance at λmax.

[4] = system: HCT116 colon carcinoma cells; test: MTT cell viability assay; format: cell-based, Human; conditions: Homo sapiens, HCT-116, HCT116, 48 h of treatment, mean
Experimental: Human colorectal carcinoma HCT116 cells (#91091005, ECACC) were grown in an IMDM medium (Biowest) supplemented with 2 mM glutamine, 100 IU/mL penicillin, 100 μg/mL streptomycin and 10% FBS (Gibco). The cell lines were grown at 37 °C in a humidified incubator containing 5% CO2. The cells were verified to be mycoplasma-free and passaged < 3 months. The inhibition of cell proliferation was measured by colorimetric 3-(4,5-dimethylthiazol-2-yl)-2,5-diphenyltetrazolium bromide (MTT) assay. GI50 concentrations were determined using the CompuSyn software version 1.0 (ComboSyn, Inc., Paramus, NJ USA) (free download via www.combosyn.com, accessed on 30 May 2022), and statistical analyses were performed using the GraphPad PRISM software (version 6.01 for Windows, GraphPad Software, San Diego, California USA GraphPad Prism) using unpaired t-test. Data were considered to be statistically significant if p < 0.05 (*), p < 0.01 (**), p < 0.001(***) and p < 0.0001 (****).

[5] = Keto-enol/diketo tautomer amounts by 1H NMR; format: physicochemical; conditions: molar percentage, MeOD-d4, 298 K
Experimental: NMR spectra were recorded by means of a Bruker Biospin FT-NMR AVANCE III HD (600 MHz) spectrometer equipped with a CryoProbe BBO H&F 5 mm in inverse detection. The nominal frequencies were 150.90 MHz for ^13C and 600.13 MHz for ^1H, respectively. For each sample, 1–5 mg were weighed and diluted up to 0.6 mL with a proper solvent in a 5 mm NMR tube; 90° pulse was calibrated for each sample, and standard NMR parameters were used to achieve quantitative results (relaxation delay, 10 s). Proton and carbon chemical shifts are given in parts per million (ppm) versus external TMS and were determined by reference to the solvent residual signals. Typical 2D homo- and heteronuclear techniques were used for assignment, i.e., ^1H,^1H COSY, ^1H,^13C HSQC, ^1H,^13C HMBC. NMR investigations of Ga^3+:L systems were performed in MeOD-d4 by adding small amounts of a Ga(NO3)3 solution (10 μL each) to 1 mM ligand solution (0.6 mL) until reaching the desired metal-to-ligand molar ratio. The complexation reaction is fast, and spectra were registered few minutes after the addition. Two-dimensional ^1H,^13C heteronuclear multiple bond correlation (HMBC) experiments (hmbcgpndqf in Bruker library) were performed via heteronuclear zero and double quantum coherence, optimized on long-range couplings (^3/4JHC = 8 Hz), with no decoupling during acquisition, and gradient pulses were used for selection. The relative percentages of the isomeric forms were estimated on the basis of the NMR data. Particularly, ^1H NMR spectra were acquired in quantitative conditions being D1 (relaxation delay) at least five times the T1 of the slowest relaxing signal of interest. The raw data were Fourier-transformed, and then the processing was performed by zero filling (SI = TD), line broadening (lb 0.3 Hz), accurate phasing and correcting the baseline. The most isolated signals were selected for integration, i.e., the vinyl protons (H-3 and H-4), and an average of the integrated area (A) of H-3 and H-4 was used for relative quantitation, according to the following equation: %Tautomeri=(A(H−3)i+(A(H−4)i)/2/∑i(A(H−3)i+(A(H−4)i)/2×100

[6] = cited from earlier work
[7] = system: transferrin; design: method as in PMID 22800370; conditions: normal plasma bicarbonate concentrations; cited from earlier work
[8] = HypSpec, spectrophotometric data

logβ011 overall protonation constant [1, 8]: 10.88 (2) | logβ012 overall protonation constant [1, 8]: 20.29 (2) | logβ013 overall protonation constant [1, 8]: 28.84 (4) | pKa ([1]; read-out: pKa1): 8.55 | pKa ([1]; read-out: pKa2): 9.41 | pKa ([1]; read-out: pKa3): 10.9 | log β 112 overall stability constant (Ga^3+) ([2]; 298 K, HypSpec): 28.28 (3) | log β 124 overall stability constant (Ga^3+) ([2]; 298 K, HypSpec): 54.63 (5) | logK11 apparent formation constant (Ga^3+, M:L 1:1) ([2]; 298 K, estimated from logβMLH): 7.99 | logK12 apparent formation constant (Ga^3+, M:L 1:2) ([2]; 298 K, estimated from logβMLH): 14.05 | Prevailing Species (pH 5.5) ([2]; Ga^3+ complex species, pH 5.5): [Ga(H2L)2]^+ | Prevailing Species (pH 7.4) ([2]; Ga^3+ complex species, pH 7.4, ** possible formation of gallium hydroxide species): [Ga(H2L)2]^+ | pGa (−log[Ga^3+]free) ([2]; [Ga^3+]total = 1 μM, [L]total = 10 μM, pH 7.4, 25 °C): 20.8 | Stability: percentage of the residual ligand after 4 h ([3]; PBS, pH 7.4, 37 °C in darkness, 4 h): 47% | Stability ranking (residual ligand after 4 h) ([3]; rank among the 7 ligands, 1 = most stable): 6 | GI50 [4]: 6.21 µM | KK (%) amount of diketo form [5]: 55% | KE (%) amount of keto–enol form ([5]; for 2 includes KE form of the Z isomer (6%)): 45%
Structure (SMILES): O=C(/C=C/c1ccc(O)cc1)C(CCCN1C(=O)c2ccccc2C1=O)C(=O)/C=C/c1ccc(O)cc1 [Compound 3]

Structure (SMILES): CC(=O)N(O)CCCCCNC(=O)CCC(=O)N(O)CCCCCNC(=O)CCC(=O)N(O)CCCCCN [DFOB]
pGa [6]: 21.6

Structure (SMILES): [Fe+3] [Fe^3+]
log K1 binding constant to transferrin [7]: 22.8 | log K2 binding constant to transferrin [7]: 21.7

Structure (SMILES): [Ga+3] [Ga^3+]
log K1 binding constant to transferrin [7]: 20.3 | log K2 binding constant to transferrin [7]: 19.3

Structure (SMILES): O=C(O)CCP(=O)(O)CN1CCN(CP(=O)(O)CCC(=O)O)CCN(CP(=O)(O)CCC(=O)O)CC1 [PrP9]
pGa [6]: 23.1
